In patent US20040248775A1, “Methods for screening inhibitors of apoptosis” (Wyeth, priority 2003, published 2004):

Target: T1, His6-NALP1 wild-type (Homo sapiens, UniProt Q9C000)
T1 construct: made in house; host or cells: COS-7 cells, transient transfection, Ni-NTA purification
T1 sequence (Q9C000 1-1473): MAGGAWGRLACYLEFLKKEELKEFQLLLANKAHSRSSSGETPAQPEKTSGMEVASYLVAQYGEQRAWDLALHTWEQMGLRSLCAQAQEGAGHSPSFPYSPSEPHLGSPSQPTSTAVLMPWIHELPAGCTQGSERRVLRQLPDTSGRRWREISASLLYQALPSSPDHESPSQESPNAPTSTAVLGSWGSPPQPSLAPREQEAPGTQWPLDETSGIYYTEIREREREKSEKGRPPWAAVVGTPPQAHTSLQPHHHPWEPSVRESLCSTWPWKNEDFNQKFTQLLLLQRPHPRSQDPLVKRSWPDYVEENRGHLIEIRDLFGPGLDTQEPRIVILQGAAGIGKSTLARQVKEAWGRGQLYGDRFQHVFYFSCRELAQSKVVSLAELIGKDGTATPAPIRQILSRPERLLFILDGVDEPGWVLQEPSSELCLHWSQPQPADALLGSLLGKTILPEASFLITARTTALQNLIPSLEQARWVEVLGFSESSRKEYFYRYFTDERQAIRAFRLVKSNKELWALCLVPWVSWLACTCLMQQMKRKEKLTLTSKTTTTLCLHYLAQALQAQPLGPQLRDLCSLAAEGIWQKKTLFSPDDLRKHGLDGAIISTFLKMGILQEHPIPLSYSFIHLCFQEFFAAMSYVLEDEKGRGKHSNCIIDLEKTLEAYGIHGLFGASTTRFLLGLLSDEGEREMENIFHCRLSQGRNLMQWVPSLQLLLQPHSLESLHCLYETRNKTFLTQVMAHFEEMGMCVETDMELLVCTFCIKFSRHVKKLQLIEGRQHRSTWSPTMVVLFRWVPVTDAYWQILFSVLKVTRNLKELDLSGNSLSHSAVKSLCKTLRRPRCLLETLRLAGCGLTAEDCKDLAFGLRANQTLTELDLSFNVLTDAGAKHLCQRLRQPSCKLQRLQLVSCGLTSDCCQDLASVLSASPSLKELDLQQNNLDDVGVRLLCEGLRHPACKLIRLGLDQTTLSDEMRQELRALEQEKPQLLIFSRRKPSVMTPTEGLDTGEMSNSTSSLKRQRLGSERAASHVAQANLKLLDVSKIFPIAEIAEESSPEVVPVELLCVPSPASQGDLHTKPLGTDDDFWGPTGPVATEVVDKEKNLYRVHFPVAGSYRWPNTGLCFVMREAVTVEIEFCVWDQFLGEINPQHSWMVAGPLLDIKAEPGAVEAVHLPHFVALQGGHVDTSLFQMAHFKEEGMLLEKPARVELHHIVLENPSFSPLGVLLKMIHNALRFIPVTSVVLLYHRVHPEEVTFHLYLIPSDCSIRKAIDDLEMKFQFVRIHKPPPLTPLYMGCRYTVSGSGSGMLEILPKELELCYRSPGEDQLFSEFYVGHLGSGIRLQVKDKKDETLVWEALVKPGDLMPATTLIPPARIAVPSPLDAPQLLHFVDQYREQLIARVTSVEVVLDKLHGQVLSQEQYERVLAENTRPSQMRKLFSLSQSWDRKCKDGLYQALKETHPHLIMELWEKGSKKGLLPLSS
Test: Ni flashplate dATPα35S binding assay, wild-type His6-NALP1
Conditions: 8 nM dATPα35S displaced by non-radiolabeled dATP
Procedure: Production of purified NALP-Flashplate binding assay. NALP1 protein for in vitro binding assays was purified from transiently transfected cells. COS-7 cells were plated in DMEM, 10% fetal calf serum with amino acid supplements and antibiotics and allowed to grow to approximately 50% confluency. Large-scale preparations were performed in Cell Factories (NUNC) with approximately 600 μg plasmid DNA. Polyfect transfection reagent (Qiagen) was used as described by the manufacturer. After 24 hours, cells were collected by trypsinization, washed with fresh medium and then with PBS. Cells were lysed by resuspension in 10× cell volume of lysis buffer (140 mM NaCl, 0.1% Triton-X100, 0.1 mM DTT, 20 mM HEPES at pH 7.4 and protease inhibitor cocktail (Roche Diagnostics BmbH)). Lysates were centrifuged at approximately 7400×g for 30 minutes and supernatants were supplemented with glycerol to a final concentration of 10% and stored at −70° C. until purification. Protein concentrations were measured and samples normalized. Extracts were mixed with 1 ml Ni-NTA agarose equilibrated with the same buffer for 1 hour at 4° C. in the tube. Disposable columns were filled with the resin and flow-through collected. […] Reactions were stopped by aspirating solutions and washed once with Buffer B. Plates were counted in a Top Count scintillation counter (Packard).

Nc1ncnc2c1ncn2[C@H]1C[C@H](O)[C@@H](COP(=O)(O)OP(=O)(O)OP(=O)(O)O)O1 [dATP]
specific binding of dATP to wild-type NALP1: specific binding
